Patent publication US20090186838A1, “Amphotericin Derivatives” (Eidgenössische Technische Hochschule Zürich, priority 2006, published 2009)
Values after ≈ are worked out from the molar mass of the structure shown. Where two headings read alike, the source gives them in different places.

Columns and labels:
[1] = system: Saccharomyces cerevisiae wild type BY4741; test: MIC determination in Saccharomyces cerevisiae wild type BY4741; assay type: cell-based; details: for MIC: read-out: MIC; for times more active than AmB (MIC): relative to AmB
Procedure: (§1) In Vitro Antifungal Activity. MIC values for various strains were determined in accordance with the standard protocol from the National Committee of Clinical Laboratory Standards but using YEPD liquid medium instead of RPMI-1640 medium (National Committee of Clinical Laboratory Standards (Reference Method for Broth Dilution Antifungal Susceptibility Testing of Yeast, M27-A2, Approved Standard-Second Edition, Volume 22, Number 15, 1995). AmB was used as a reference. The strains were cultivated overnight in 5 mL YEPD liquid medium at 30 to 37° C. (30° C. for the strain BY4741; 37° C. for the strain DSY1764) with constant shaking. The saturated cultures were diluted to an ODB600 of 0.1 (3×10P^7 cells/mL). Using 24 wells plate, each well was prepared by adding 1% (12 μL) of DMSO solution of the tested polyene macrolide with 1% (12 μL) yeast cells solution and completed with YEPD (1.176 mL). The plates were sealed with Parafilm and then incubated for 18 to 36 hours at 30 to 37° C. (18 hours at 30° C. for the strain BY4741; 36 hours at 37° C. for the strain DSY1764). The optical density was read at 600 nm using 1.5 mL cuvettes. The MIC value was defined as the drug concentration needed to inhibit growth, less than 5% compared to a drug-free culture.
MIC values of various polyene macrolides of the invention in Saccharomyces cerevisiae wild type BY4741, a derivative of S288C, (with AmB as a reference) were determined as described hereinabove.
Based on the remarkable performance observed with the Diamine-AmB conjugate similar modifications of the aminosugar moiety were made on other polyene macrolides, such as for example Nystatin (1b) and Pimaricin (1c). The antifungal activity of these nystatin and pimaricin conjugates bearing two aminopropyl side chains was measured using Saccharomyces cerevisiae wild type BY4741.

DSY-562 C. glabrata CI = test: MIC determination in Candida strain DSY-562; assay type: cell-based; details: Nakaseomyces glabratus
Procedure: as §1
(§2) MIC values of the polyene macrolides 3, 9 and 10 (Diamine-AmB and its ester and diamide derivative, respectively) in various Candida strains including an AmB-resistant strain C. albicans (DSY1764, with the genotype erg3AΔ::hisG/erg3BΔ::hisG erg11Δ::hisG/erg11Δ::hisG-URA3-hisG) were determined.

CAF2-1 C. albican wt = test: MIC determination in Candida strain CAF2-1; assay type: cell-based, Candida albicans; details: Candida albicans
Procedure: as §1, §2

[2] = system: DSY-1764 C. albican mutant erg3/11 (AmB-resistant strain); test: MIC determination in AmB-resistant Candida strain DSY-1764; assay type: cell-based, Candida albicans; details: Candida albicans, 36 h
Procedure: as §1, §2

[3] = K+ efflux assay, ergosterol containing vesicles; details: lower concentration, 0.1 μM (FIG. 3a,c,e,g)
Procedure: (§3) FIG. 3. K^+ efflux from vesicles (LUVET100) prepared from […] (POPC) (solid line) or POPC with sterols (dotted line) for ergosterol and (broken line) for cholesterol caused by AmB (1a) (FIGS. 3a,b) and AmB diamine 3 (FIG. 3c,d), AmB diamine ester 9 (FIG. 3e,f) and AmB diamine amide 10 (FIG. 3g,h), added in DMSO to a suspension of vesicles to give final concentrations of 0.1 μM (FIG. 3a,c,e,g) and 1.0 μM (FIG. 3b,d,f,h).
K+ efflux assay. The K^+ efflux measurements were made following a previously described procedure (Zumbuehl, A. et al., Angew. Chem. Int. Ed. 2004, 43, 5181-5185; Zumbuehl, A. et al., Org. Lett. 2004, 6, 3683-3686). The appropriate liposome suspensions were prepared using POPC, cholesterol and ergosterol. Then the liposomes were sized by extrusion through two 400 nm, 200 nm, and finally 100 nm pore size membrane. The resultant “100 nm” unilamellar liposomes were dialyzed against 600 mL of 150 mM NaCl, 5 mM HEPES (pH 7.4) buffer. After, the suspension was diluted with 150 mM NaCl, 5 mM HEPES (pH 7.4) buffer to 1 mM overall lipid concentration (phospholipids+sterols). For each efflux measurement 10 mL of this liposome suspension was placed in a small beaker. Potentiometric measurements were performed with a 16-channel electrode monitor in magnetically stirred solutions at ambient temperature. The reference electrode was a Metrohm double junction Ag/AgCl reference electrode with 3 M KCl as reference electrolyte and 1 M LiOAc as bridge electrolyte. […] The resulting reading (taken after 0.5 h) was used to quantify the 100% K+-release.
As described hereinbefore differential interaction between ergosterol found in fungal membranes and cholesterol in mammalian cells is considered the basis for the selectivity of AmB (1a) as an antifungal agent. The preferential stabilization of ion channel formation in the membrane by ergosterol ultimately results in electrolyte leakage which can be conveniently measured by K^+ efflux from sterol containing vesicles. […]

[4] = K+ efflux assay, cholesterol containing vesicles; details: for K+ efflux with cholesterol-containing vesicles: high concentration, 1.0 μM (FIG. 3b,d,f,h), compared with AmB (1a); for K+ efflux with cholesterol containing vesicles: lower concentration, 0.1 μM (FIG. 3a,c,e,g)
Procedure: as §3
K+ efflux assay. The K^+ efflux measurements were made following a previously described procedure (Zumbuehl, A. et al., Angew. Chem. Int. Ed. 2004, 43, 5181-5185; Zumbuehl, A. et al., Org. Lett. 2004, 6, 3683-3686). The appropriate liposome suspensions were prepared using POPC, cholesterol and ergosterol. Then the liposomes were sized by extrusion through two 400 nm, 200 nm, and finally 100 nm pore size membrane. The resultant “100 nm” unilamellar liposomes were dialyzed against 600 mL of 150 mM NaCl, 5 mM HEPES (pH 7.4) buffer. After, the suspension was diluted with 150 mM NaCl, 5 mM HEPES (pH 7.4) buffer to 1 mM overall lipid concentration (phospholipids+sterols). For each efflux measurement 10 mL of this liposome suspension was placed in a small beaker. Potentiometric measurements were performed with a 16-channel electrode monitor in magnetically stirred solutions at ambient temperature. The reference electrode was a Metrohm double junction Ag/AgCl reference electrode with 3 M KCl as reference electrolyte and 1 M LiOAc as bridge electrolyte. After recording the amphotericin-induced potassium efflux, liposomes were lysed by adding sodium cholate (172 mg). The resulting reading (taken after 0.5 h) was used to quantify the 100% K+-release.
As described hereinbefore differential interaction between ergosterol found in fungal membranes and cholesterol in mammalian cells is considered the basis for the selectivity of AmB (1a) as an antifungal agent. The preferential stabilization of ion channel formation in the membrane by ergosterol ultimately results in electrolyte leakage which can be conveniently measured by K^+ efflux from sterol containing vesicles. To assess the interaction of the polyene macrolide derivatives of the invention with sterols, derivatives 3, 9 and 10 were examined in their ability to lead to K^+ efflux from large unilamellar vesicles (LUV) prepared from POPC (1-palmitoyl-2-oleoyl-sn-glycero-3-phosphocholine) admixed with sterols, mimicking conditions in natural biomembranes (FIG. 3). At high concentration (FIG. 3b,d,f,h), all compounds rapidly induce complete K^+ efflux from vesicles containing ergosterol (dotted line). […] This differentiation between ergosterol and cholesterol is consistent with the observation of reduced hemotoxicity of 3, 9 and 10.

Solubility assay = assay type: physicochemical; details: for solubility: PBS buffer, pH 7.2, aqueous buffer, kinetic from dmso stock, read-out: Solubility in water
Procedure: Solubility assay. The solubility assay was performed according to Lipinski, C. A. et al Advances Drug Delivery Reviews 2001, 46, 3-26. Typically, a compound of the invention was dissolved in DMSO at a concentration of 10 μg/μl. The so obtained solution was added in […] at 1 min intervals to 2.5 ml PBS buffer solution pH 7.2. These additions correspond to solubility increments of 5 μg/ml to a top value of 65 μg/ml. A total of 14 additions were made and each time increased UV absorbance from light scattering was measured at 600 nm. The precipitation point was calculated from a bilinear curve fit to the Absorbance (y axis) versus μl of DMSO (x axis) plot.
The solubility of the polyene macrolides of the invention in water was tested following the above described protocol. Clearly, all conjugates were more soluble in water then AmB.

[5] = Saccharomyces cerevisiae wild type BY4741, YEPD liquid medium, 18 hours at 30° C.
[6] = Saccharomyces cerevisiae wild type BY4741
[7] = Saccharomyces cerevisiae, Table 3, strain not given, values as in Table 1 (S. cerevisiae BY4741)
[8] = DMSO stock added to PBS buffer solution pH 7.2, precipitation point by light scattering at 600 nm

| Structure (SMILES) | MIC [1, 5] [µM] | times more active than AmB (MIC) [1, 6] [times] | MIC [1, 7] [µM] | MIC (DSY-562 C. glabrata CI) [µM] | MIC (CAF2-1 C. albican wt) [µM] | MIC [2] [µM] | K+ efflux with ergosterol containing vesicles [3] | K+ efflux with cholesterol-containing vesicles [4] | K+ efflux with cholesterol containing vesicles [4] | solubility (Solubility assay; [8]) [µg/mL] | Solubility in water (Solubility assay; DMSO stock added to PBS buffer solution pH 7.2, precipitation point by light scattering at 600 nm, listed as Diamine-Amide 10) [µg/mL] | solubility in water compared with AmB (Solubility assay; relative to AmB) |
| --- | --- | --- | --- | --- | --- | --- | --- | --- | --- | --- | --- | --- |
| COC(=O)[C@H]1[C@@H]2C[C@@H](O[C@@H]3O[C@H](C)[C@@H](O)[C@H](N(CCCN)CCCN)[C@@H]3O)/C=C/C=C/C=C/C=C/C=C/C=C/C=C/[C@H](C)[C@@H](O)[C@@H](C)[C@H](C)OC(=O)C[C@H](O)C[C@H](O)CC[C@@H](O)[C@H](O)C[C@H](O)C[C@](O)(C[C@@H]1O)O2 [compound 9, N,N-Di-(3-aminopropyl)-AmB Methyl Ester] | 0.1 (≈ 0.105 µg/mL) | 3 | 0.1 (≈ 0.105 µg/mL) | 0.25 (≈ 0.263 µg/mL) | 0.5 (≈ 0.526 µg/mL) | 4 (≈ 4.21 µg/mL) | observed exclusively with the ergosterol containing vesicles | significantly reduced efflux | indistinguishable from background | 22 (≈ 20.9 µM) |  |  |
| C[C@@H]1[C@H](O)[C@@H](C)/C=C/C=C/C=C/C=C/C=C/C=C/C=C/[C@H](O[C@@H]2O[C@H](C)[C@@H](O)[C@H](N(CCCN)CCCN)[C@@H]2O)CC2O[C@](O)(C[C@@H](O)C[C@@H](O)[C@H](O)CC[C@@H](O)C[C@@H](O)CC(=O)O[C@H]1C)C[C@H](O)[C@H]2C(=O)NCCN [compound 10, 16-(N′-(2-Aminoethyl)-carboxamide)-N,N-di-(3-aminopropyl)-AmB] | 0.04 (≈ 0.0432 µg/mL) | 7.5 | 0.04 (≈ 0.0432 µg/mL) | 0.5 (≈ 0.54 µg/mL) | 2 (≈ 2.16 µg/mL) | 4 (≈ 4.32 µg/mL) | observed exclusively with the ergosterol containing vesicles | significantly reduced efflux | indistinguishable from background | ≤ 40 | 40 (≈ 37 µM) | four times more soluble |
